Consider 22 compounds from US9840478B2 (MERCK SHARP & DOHME CORP., priority 2013, dated 2017).

The first assay has as its system HIV-1 (H9IIIB strain). Put plainly: Cell-based HIV infection assay using a reporter (Cell-Based), MT4-GFP cells. To be noted: Human immunodeficiency virus 1, MT4-GFP cells infected with HIV-1 H9IIIB; 50% normal human serum; mean of at least two independent experiments; read-out: Cell-based IP. The essentials: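 MT4-GFP cells (HIV LTR-driven GFP) infected 24 h with HIV-1 H9IIIB at low MOI, then washed and plated with compounds in RPMI + 50% normal human serum, 0.4% DMSO final. Green cells counted at 24 and 48 h; R0 = 48 h/24 h ratio, inhibition normalized to DMSO and triple-drug control; IC50 from 4-parameter fit.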
For the compound `COC(=O)N[C@H](C(=O)Nc1cccc(F)c1CC[C@H]1CNCC2(CC2)N1S(=O)(=O)c1ccccc1)[C@@H](c1ccc(Cl)cc1)C1CCOCC1` [Example 369, ((1R,2S)-1-(4-chlorophenyl)-3-((3-fluoro-2-(2-((S)-4-(phenylsulfonyl)-4,7-diazaspiro[2.5]octan-5-yl)ethyl)phenyl)amino)-3-oxo-1-(tetrahydro-2H-pyran-4-yl)propan-2-yl)carbamate], the IC50 is 11 nM. Still for that read-out and setting: in the case of `COc1ccc(S(=O)(=O)N2[C@@H](CCc3c(F)cncc3NC(=O)[C@@H](N)[C@@H](c3ccc(F)cc3)c3cc(F)cc(F)c3)CNC[C@@H]2C)cc1` [Example 244, (βS)-β-(3,5-difluorophenyl)-4-fluoro-N-[5-fluoro-4-(2-{(2S,6S)-1-[(4-methoxyphenyl)sulfonyl]-6-methylpiperazin-2-yl}ethyl)pyridin-3-yl]-L-phenylalaninamide] it was 5.9 nM; in that of `C[C@H]1CNC[C@H](CCc2c(F)cccc2NC(=O)[C@@H](N)C(c2cccc(F)c2)c2cccc(F)c2)N1S(=O)(=O)c1ccccc1` [Example 10, (S)-2-Amino-N-(3-fluoro-2-(2-((2S,6S)-6-methyl-1-(phenylsulfonyl)piperazin-2-yl)ethyl)phenyl)-3,3-bis(3-fluorophenyl)propanamide], 11 nM.

Take `C[C@@H]1CNC[C@H](CCc2c(F)cncc2NC(=O)[C@@H](N)[C@@H](c2ccc(Cl)cc2)c2cccc(F)c2)N1S(=O)(=O)c1ccccc1` [Example 135, (βS)-4-chloro-N-(5-fluoro-4-{2-[(2S,6R)-6-methyl-1-(phenylsulfonyl)piperazin-2-yl]ethyl}pyridin-3-yl)-β-(3-fluorophenyl)-L-phenylalaninamide]: the IC50 amounted to 23 nM. On the same count and under the same terms, in the case of `COC(=O)N[C@H](C(=O)Nc1cccc(F)c1CC[C@H]1CNC[C@@H](C)N1S(=O)(=O)c1ccccc1)[C@@H](Cc1ccc(F)cc1)c1ccc(Cl)cc1` [Example 196, (βS)-4-chloro-β-(4-fluorobenzyl)-N-(3-fluoro-2-{2-[(2S,6R)-6-methyl-1-(phenylsulfonyl)piperazin-2-yl]ethyl}phenyl)-Nα-(methoxycarbonyl)-L-phenylalaninamide] it was 49 nM. `CN(CC(F)(F)F)S(=O)(=O)N1CCNC[C@@H]1CCc1c(F)cccc1NC(=O)[C@@H](N)C(c1ccc(F)cc1)c1ccc(F)cc1` [Example 68, 4-fluoro-N-[3-fluoro-2-(2-{(2S)-1-[methyl(2,2,2-trifluoroethyl)sulfamoyl]piperazin-2-yl}ethyl)phenyl]-β-(4-fluorophenyl)-L-phenylalaninamide]: the IC50 stood at 1800 nM. For `COC(=O)N[C@H](C(=O)Nc1cncc(F)c1CC[C@H]1CNC[C@@H](C)N1S(=O)(=O)C1CC1)[C@@H](c1ccc(Cl)cc1)C(C)C` [Example 180, (βR)-4-chloro-N-(4-{2-[(2S,6R)-1-(cyclopropylsulfonyl)-6-methylpiperazin-2-yl]ethyl}-5-fluoropyridin-3-yl)-Nα-(methoxycarbonyl)-β-(1-methylethyl)-L-phenylalaninamide], the IC50 stood at 69 nM. On the same count and under the same terms, in the case of `CC(Oc1ccccc1)C(=O)N1CCNC[C@@H]1CCc1c(F)cncc1NC(=O)C[C@@H](c1ccc(F)cc1)c1cc(F)cc(F)c1` (stereo partly drawn) [Example 347, (3S)-3-(3,5-difluorophenyl)-N-(5-fluoro-4-{2-[(2S)-1-(2-phenoxypropanoyl)piper-azin-2-yl]ethyl}pyridin-3-yl)-3-(4-fluorophenyl)propanamide] it was 57 nM; in that of `COc1ccc([C@H](c2ccc(Cl)cc2)[C@H](N)C(=O)Nc2cccc(F)c2CC[C@H]2CNC[C@H](C)N2S(=O)(=O)C2CC2)cn1` [Example 150, (βS)-4-chloro-N-(2-{2-[(2S,6S)-1-(cyclopropylsulfonyl)-6-methylpiperazin-2-yl]ethyl}-3-fluorophenyl)-β-(6-methoxypyridin-3-yl)-L-phenylalaninamide], 26 nM; in that of `COC(=O)N[C@H](C(=O)Nc1cccc(F)c1CC[C@H]1CNC[C@H](C)N1S(C)(=O)=O)[C@@H](c1ccc(F)cc1)C1CCOCC1` [Example 130, (βR)-4-fluoro-N-(3-fluoro-2-{2-[(2S,6S)-6-methyl-1-(methylsulfonyl)piperazin-2-yl]ethyl}phenyl)-Nα-(methoxycarbonyl)-β-(tetrahydro-2H-pyran-4-yl)-L-phenylalaninamide], 55 nM.

On to `C[C@@H]1CNC[C@H](CCc2c(F)cccc2NC(=O)CC(c2ccc(F)cc2)c2ccc(F)cc2)N1S(=O)(=O)c1ccccc1` [Example 90, N-(3-fluoro-2-{2-[(2S,6R)-6-methyl-1-(phenylsulfonyl)piperazin-2-yl]ethyl}phenyl)-3,3-bis(4-fluorophenyl) propanamide], for which the IC50 came out at 66 nM.

Turning to `COCC1CNC[C@H](CCc2c(F)cccc2NC(=O)[C@@H](N)[C@@H](c2ccc(F)cc2)c2cc(F)cc(F)c2)N1S(=O)(=O)C1CC1` (stereo partly drawn) [Example 241, (βS)-N-(2-{2-[(2S)-1-(cyclopropylsulfonyl)-6-(methoxymethyl)piperazin-2-yl]ethyl}-3-fluorophenyl)-β-(3,5-difluorophenyl)-4-fluoro-L-phenylalaninamide], the IC50 stood at 39 nM.

With `Nc1ccc(S(=O)(=O)N2CCNC[C@@H]2CCc2c(F)cncc2NC(=O)C[C@@H](c2ccc(F)cc2)c2cc(F)cc(F)c2)cn1` [Example 307, (3S)-N-[4-(2-{(2S)-1-[(6-aminopyridin-3-yl)sulfonyl]piperazin-2-yl}ethyl)-5-fluoropyridin-3-yl]-3-(3,5-difluorophenyl)-3-(4-fluorophenyl)propanamide], the IC50 came out at 130 nM. For `COC(=O)N[C@H](C(=O)Nc1cccc(F)c1CC[C@H]1CNC[C@@H](C)N1S(=O)(=O)c1ccccc1)[C@@H](c1cc(F)cc(F)c1)C1CCOCC1` [Example 283, (βR)-3,5-difluoro-N-(3-fluoro-2-{2-[(2S,6R)-6-methyl-1-(phenylsulfonyl)piperazin-2-yl]ethyl}phenyl)-Nα-(methoxycarbonyl)-β-(tetrahydro-2H-pyran-4-yl)-L-phenylalaninamide], the IC50 turned out to be 14 nM. With `O=C(CC1(c2ccc(Cl)cc2)CCOCC1)Nc1cncc(F)c1CC[C@H]1CNCCN1S(=O)(=O)C1CC1` [Example 62, 2-[4-(4-chlorophenyl)tetrahydro-2H-pyran-4-yl]-N-(4-{2-[(2S)-1-(cyclopropylsulfonyl)piperazin-2-yl]ethyl}-5-fluoropyridin-3-yl)acetamide], the IC50 was 520 nM. The same measure, in the same setting: in the case of `COC(=O)N[C@H](C(=O)Nc1cccc(F)c1CC[C@H]1CNC[C@H](C)N1S(=O)(=O)c1ccccc1)[C@@H](c1ccc(F)cc1)c1cc(F)cc(F)c1` [Example 95, (βS)-β-(3,5-difluorophenyl)-4-fluoro-N-(3-fluoro-2-{2-[(2S,6S)-6-methyl-1-(phenylsulfonyl)piperazin-2-yl]ethyl}phenyl)-Nα-(methoxycarbonyl)-L-phenylalaninamide] it was 20 nM; in that of `CCOC(=O)c1nc(-c2ccc(S(=O)(=O)N3CCNC[C@@H]3CCc3c(F)cncc3NC(=O)C[C@@H](c3ccc(F)cc3)c3cc(F)cc(F)c3)s2)no1` [Example 312, ethyl 3-[5-({(2S)-2-[2-(3-{[(3S)-3-(3,5-difluorophenyl)-3-(4-fluorophenyl)propanoyl]amino}-5-fluoropyridin-4-yl)ethyl]piperazin-1-yl}sulfonyl)thiophen-2-yl]-1,2,4-oxadiazole-5-carboxylate], 140 nM; in that of `COC(=O)N[C@H](C(=O)Nc1cncc(F)c1CC[C@H]1CNC[C@H](C)N1S(=O)(=O)c1ccc(OC)cc1)[C@@H](c1ccc(F)cc1)c1cc(F)cc(F)c1` [Example 246, (βS)-β-(3,5-difluorophenyl)-4-fluoro-N-[5-fluoro-4-(2-{(2S,6S)-1-[(4-methoxyphenyl)sulfonyl]-6-methylpiperazin-2-yl}ethyl)pyridin-3-yl]-Nα-(methoxycarbonyl)-L-phenylalaninamide], 5.9 nM. Still for that read-out and setting: to `C[C@@H]1CNC[C@H](CCc2c(F)cccc2NC(=O)[C@@H](N)[C@@H](c2ccc(F)cc2)c2cc(F)cc(F)c2)N1S(=O)(=O)c1ccc(OC(F)(F)F)cc1` [Example 255, (βS)-β-(3,5-difluorophenyl)-4-fluoro-N-(3-fluoro-2-{2-[(2S,6R)-6-methyl-1-{[4-(trifluoromethoxy)phenyl]sulfonyl}piperazin-2-yl]ethyl}phenyl)-L-phenylalaninamide] belongs 59 nM; to `C[C@H]1CNC[C@H](CCc2c(F)cccc2NC(=O)[C@@H](N)[C@@H](c2ccc(F)cc2)C2CCOCC2)N1S(C)(=O)=O` [Example 129, (βR)-4-fluoro-N-(3-fluoro-2-{2-[(2S,6S)-6-methyl-1-(methylsulfonyl)piperazin-2-yl]ethyl}phenyl)-β-(tetrahydro-2H-pyran-4-yl)-L-phenylalaninamide], 210 nM; to `COC(=O)N[C@H](C(=O)Nc1cccc(F)c1CC[C@H]1CNC[C@H](C)N1S(=O)(=O)c1ccc(OC)cc1)[C@H](c1cccc(F)c1)c1cccc(Cl)c1` [Example 163, (βR)-3-chloro-N-[3-fluoro-2-(2-{(2S,6S)-1-[(4-methoxyphenyl)sulfonyl]-6-methylpiperazin-2-yl}ethyl)phenyl]-β-(3-fluorophenyl)-Nα-(methoxycarbonyl)-L-phenylalaninamide], 20 nM.

Still in this assay, the particulars now being: MT4-GFP cells infected with HIV-1 H9IIIB; 50% normal human serum; mean of at least two independent experiments; read-out: Cell-based IP.
For the compound `COCC1CNC[C@H](CCc2c(F)cccc2NC(=O)[C@@H](N)[C@@H](c2ccc(Cl)cc2)C2CCOCC2)N1S(C)(=O)=O` (stereo partly drawn) [Example 260, (βR)-4-chloro-N-(3-fluoro-2-{2-[(2S)-6-(methoxymethyl)-1-(methylsulfonyl)piperazin-2-yl]ethyl}phenyl)-β-(tetrahydro-2H-pyran-4-yl)-L-phenylalaninamide], the IC50 worked out at 140 nM.
